Test results taken from PubChem BioAssay AID1918939 (Molecular Pharmacology Branch, DTP, NCI, 2023).
pIC50: −log10 of the molar value. “And” between values parts separate entries of the source, which are not always exact repeats. Equal values may be shown once.

Test system: 653999-131-R-J2-PDC complex spheroid viability
Test: Anticancer human tumor 653999-131-R-J2-PDC patient-derived lung adenocarcinoma cell line growth inhibition
Conditions: for viability, T/C: stronger effect = lower value
Procedure, shortened: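 Drug combinations with the LSD1 inhibitor iadademstat tested on tumor cells co-cultured as spheroids with endothelial cells and mesenchymal stem cells. Concentrations descended in half-log increments from clinical Cmax or 10 microM.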

[1] = curve of first compound, second compound 0.1 µM
[2] = curve of first compound, second compound 0.316 µM
[3] = curve of first compound, second compound 1 µM
[4] = curve of first compound, second compound 3.16 µM
[5] = curve of first compound, second compound 10 µM
[6] = second compound 0.1 µM, first compound 0.0316 µM
[7] = second compound 0.1 µM, first compound 0.1 µM
[8] = second compound 0.316 µM, first compound 0.0316 µM
[9] = second compound 0.316 µM, first compound 0.1 µM
[10] = second compound 1 µM, first compound 0.0316 µM
[11] = second compound 1 µM, first compound 0.1 µM
[12] = second compound 3.16 µM, first compound 0.0316 µM
[13] = second compound 3.16 µM, first compound 0.1 µM
[14] = second compound 10 µM, first compound 0.0316 µM
[15] = second compound 10 µM, first compound 0.1 µM
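Also: spheroids exposed to agents for seven days before readout.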

SMILES: CC(C)c1c(-c2ccccc2)nc2c(C#N)c[nH]n2c1=O + NC1CCC(NC2CC2c2ccccc2)CC1
- pIC50 [1]: < 5.00
- pIC50 [2]: < 5.00
- pIC50 [3]: < 5.00
- pIC50 [4]: < 5.00
- pIC50 [5]: < 5.00
- viability, T/C [6]: 92.5%
- viability, T/C [7]: 97.8%
- viability, T/C (second compound 0.1 µM, first compound 0.316 µM): 91.4%
- viability, T/C (second compound 0.1 µM, first compound 1 µM): 80.6%
- viability, T/C (second compound 0.1 µM, first compound 3.16 µM): 91.8%
- viability, T/C (second compound 0.1 µM, first compound 10 µM): 91.5%
- viability, T/C [8]: 94.5%
- viability, T/C [9]: 89.6%
- viability, T/C (second compound 0.316 µM, first compound 0.316 µM): 100%
- viability, T/C (second compound 0.316 µM, first compound 1 µM): 82.3%
- viability, T/C (second compound 0.316 µM, first compound 3.16 µM): 85.5%
- viability, T/C (second compound 0.316 µM, first compound 10 µM): 77.5%
- viability, T/C [10]: 94.2%
- viability, T/C [11]: 105%
- viability, T/C (second compound 1 µM, first compound 0.316 µM): 92.8%
- viability, T/C (second compound 1 µM, first compound 1 µM): 84.9%
- viability, T/C (second compound 1 µM, first compound 3.16 µM): 87.2%
- viability, T/C (second compound 1 µM, first compound 10 µM): 85.1%
- viability, T/C [12]: 85.9%
- viability, T/C [13]: 103%
- viability, T/C (second compound 3.16 µM, first compound 0.316 µM): 84.6%
- viability, T/C (second compound 3.16 µM, first compound 1 µM): 95.1%
- viability, T/C (second compound 3.16 µM, first compound 3.16 µM): 89%
- viability, T/C (second compound 3.16 µM, first compound 10 µM): 80%
- viability, T/C [14]: 91.9%
- viability, T/C [15]: 88.1%
- viability, T/C (second compound 10 µM, first compound 0.316 µM): 82.6%
- viability, T/C (second compound 10 µM, first compound 1 µM): 78.1%
- viability, T/C (second compound 10 µM, first compound 3.16 µM): 75.5%
- viability, T/C (second compound 10 µM, first compound 10 µM): 69.4%

SMILES: CCN(c1cc(-c2ccc(CN3CCOCC3)cc2)cc(C(=O)NCc2c(C)cc(C)[nH]c2=O)c1C)C1CCOCC1 + NC1CC1c1ccc(-c2cccc(O)c2)cc1
- pIC50 [1]: < 5.52
- pIC50 [2]: < 5.52
- pIC50 [3]: < 5.52
- pIC50 [4]: < 5.52
- pIC50 [5]: < 5.52
- viability, T/C (second compound 0.1 µM, first compound 0.00949 µM): 92.9%
- viability, T/C (second compound 0.1 µM, first compound 0.03 µM): 104%
- viability, T/C (second compound 0.1 µM, first compound 0.0949 µM): 97.8%
- viability, T/C (second compound 0.1 µM, first compound 0.3 µM): 87.4%
- viability, T/C (second compound 0.1 µM, first compound 0.949 µM): 94.1%
- viability, T/C (second compound 0.1 µM, first compound 3 µM): 69.5%
- viability, T/C (second compound 0.316 µM, first compound 0.00949 µM): 102%
- viability, T/C (second compound 0.316 µM, first compound 0.03 µM): 107%
- viability, T/C (second compound 0.316 µM, first compound 0.0949 µM): 97.8%
- viability, T/C (second compound 0.316 µM, first compound 0.3 µM): 80.1%
- viability, T/C (second compound 0.316 µM, first compound 0.949 µM): 79.3%
- viability, T/C (second compound 0.316 µM, first compound 3 µM): 69.7%
- viability, T/C (second compound 1 µM, first compound 0.00949 µM): 96.1%
- viability, T/C (second compound 1 µM, first compound 0.03 µM): 97.5%
- viability, T/C (second compound 1 µM, first compound 0.0949 µM): 89.4%
- viability, T/C (second compound 1 µM, first compound 0.3 µM): 95.4%
- viability, T/C (second compound 1 µM, first compound 0.949 µM): 93.6%
- viability, T/C (second compound 1 µM, first compound 3 µM): 71.8%
- viability, T/C (second compound 3.16 µM, first compound 0.00949 µM): 108%
- viability, T/C (second compound 3.16 µM, first compound 0.03 µM): 108%
- viability, T/C (second compound 3.16 µM, first compound 0.0949 µM): 109%
- viability, T/C (second compound 3.16 µM, first compound 0.3 µM): 93.8%
- viability, T/C (second compound 3.16 µM, first compound 0.949 µM): 89.3%
- viability, T/C (second compound 3.16 µM, first compound 3 µM): 76.2%
- viability, T/C (second compound 10 µM, first compound 0.00949 µM): 101%
- viability, T/C (second compound 10 µM, first compound 0.03 µM): 113%
- viability, T/C (second compound 10 µM, first compound 0.0949 µM): 97%
- viability, T/C (second compound 10 µM, first compound 0.3 µM): 93%
- viability, T/C (second compound 10 µM, first compound 0.949 µM): 90.4%
- viability, T/C (second compound 10 µM, first compound 3 µM): 86.7%

SMILES: CC[C@@]1(O)C(=O)OCc2c1cc1n(c2=O)Cc2cc3c(CN(C)C)c(O)ccc3nc2-1 + NC1CCC(NC2CC2c2ccccc2)CC1
- pIC50 [1]: 8.33
- pIC50 [2]: 8.28
- pIC50 [3]: 8.32
- pIC50 [4]: 8.26
- pIC50 [5]: 8.16
- viability, T/C (second compound 0.1 µM, first compound 0.000316 µM): 89.3%
- viability, T/C (second compound 0.1 µM, first compound 0.001 µM): 85.3%
- viability, T/C (second compound 0.1 µM, first compound 0.00316 µM): 50.7%
- viability, T/C (second compound 0.1 µM, first compound 0.01 µM): 40.2%
- viability, T/C [6]: 27.5%
- viability, T/C [7]: 19.8%
- viability, T/C (second compound 0.316 µM, first compound 0.000316 µM): 87%
- viability, T/C (second compound 0.316 µM, first compound 0.001 µM): 80.4%
- viability, T/C (second compound 0.316 µM, first compound 0.00316 µM): 57.9%
- viability, T/C (second compound 0.316 µM, first compound 0.01 µM): 37.9%
- viability, T/C [8]: 26.2%
- viability, T/C [9]: 18%
- viability, T/C (second compound 1 µM, first compound 0.000316 µM): 94.7%
- viability, T/C (second compound 1 µM, first compound 0.001 µM): 73.2%
- viability, T/C (second compound 1 µM, first compound 0.00316 µM): 61.6%
- viability, T/C (second compound 1 µM, first compound 0.01 µM): 35.9%
- viability, T/C [10]: 25.1%
- viability, T/C [11]: 21.6%
- viability, T/C (second compound 3.16 µM, first compound 0.000316 µM): 78.7%
- viability, T/C (second compound 3.16 µM, first compound 0.001 µM): 75.3%
- viability, T/C (second compound 3.16 µM, first compound 0.00316 µM): 52.7%
- viability, T/C (second compound 3.16 µM, first compound 0.01 µM): 44.1%
- viability, T/C [12]: 29.9%
- viability, T/C [13]: 20.7%
- viability, T/C (second compound 10 µM, first compound 0.000316 µM): 91.9%
- viability, T/C (second compound 10 µM, first compound 0.001 µM): 77.9%
- viability, T/C (second compound 10 µM, first compound 0.00316 µM): 63.9%
- viability, T/C (second compound 10 µM, first compound 0.01 µM): 44.3%
- viability, T/C [14]: 27.1%
- viability, T/C [15]: 19.7%

SMILES: CCN(c1cc(-c2ccc(CN3CCOCC3)cc2)cc(C(=O)NCc2c(C)cc(C)[nH]c2=O)c1C)C1CCOCC1
- viability, T/C (compound 0.00949 µM): 91.4% and 104%
- viability, T/C (compound 0.03 µM): 96.6% and 104%
- viability, T/C (compound 0.0949 µM): 103%
- viability, T/C (compound 0.3 µM): 97.3% and 101%
- viability, T/C (compound 0.949 µM): 91.9% and 89.5%
- viability, T/C (compound 3 µM): 92.6% and 92%
- pIC50 (curve of compound): < 5.52
